Assay results reported in patent US8921373B2, “Compounds having TRPV1 antagonistic activity and uses thereof” (Shionogi & Co., Ltd., priority 2010, dated 2014).

Assays:
[1] = Measurement of body temperature increase (rectal body temperature); assay type: in vivo, rat; conditions: Crl/SD rats, oral, 1 mg/mL at 10 mL/kg
Description: Test Animals: Selection of rats (Crl/SD rats, 7 weeks, male) for this study was based on rectal body temperature measured during the morning of the day of dosing. In addition, animals selected for this study were acclimated to both the rectal measurement procedure and to being handled and dosed to minimize spontaneous, stress-induced, increases in body temperature. The study was conducted in the animal care laboratories where the room temperature and humidity were kept. The rats were free to move and food and water during the study. Each rat was numbered with color line on the tail, housed in each cage and permitted the normal range of movement. Immediately before each body temperature was measured, they transferred to a single cage at each measurement. To reduce stress which affected the body temperature, the rats were covered with towels at the measurement. The thermistor probe was then carefully inserted into the rectum of each rat and left in place until the value on the digital display had stabilized.
Assays: On the day before dosing, rectal body temperatures were measured at 9:00, 10:00, 11:00, 12:30, 13:30, 14:30 and 15:30 to familiarize the animals with the measurement procedure prior to administration of the test or control treatments. The rats were also dosed by oral gavage without vehicle at 12:30 to acclimate and familiarized the animals with the handling and dosing procedure.
On the day of dosing, only rats whose rectal body temperatures were within the range of 37.0° C. to 37.7° C. were selected for this study. Rectal body temperatures were measured at 9:00, 10:00 and 11:00. Rats whose rectal body temperatures were over 37.9° C. at 10:00, and were outside the range of 37.0° C. to 37.7° C. at 11:00 were excluded from the study. The selected rats were divided to several groups based on their rectal body temperatures at 11:00. Rectal body temperatures of the selected rats were measured again at 12:30, and any rats whose rectal body temperature was 38.0° C. or greater were excluded from the study.
Following the group assignment, test compounds or vehicle was administrated to the rats. Each test compound was dissolved in 0.5% methylcellurose and the final concentration of the compound was adjusted to 1 mg/mL. Test compound was orally administrated in a volume 10 mL/kg once. 10 mL/kg of vehicle (0.5% methylcellurose) was administered to the vehicle group. The rectal body temperatures were measured 0.5, 1 and 2 hrs after the administration. The study was conducted in the animal care laboratories where the room temperature and humidity were kept.
Body temperature increase (ΔTb) was calculated from the difference from an average of the vehicle group at each time point.

[2] = target: T1, human recombinant TRPV1 (Homo sapiens (Human), UniProt Q8NER1); test: TRPV1 Capsaicin-Based Assay (Protocol 2, TRPV1/CHO cells, Fluo-4, FLIPR); assay type: cell-based; conditions: TRPV1/CHO cells, capsaicin 100 nM final; read-out: IC50 value by the Capsaicin-Based Assay
T1 sequence (Q8NER1 whole entry): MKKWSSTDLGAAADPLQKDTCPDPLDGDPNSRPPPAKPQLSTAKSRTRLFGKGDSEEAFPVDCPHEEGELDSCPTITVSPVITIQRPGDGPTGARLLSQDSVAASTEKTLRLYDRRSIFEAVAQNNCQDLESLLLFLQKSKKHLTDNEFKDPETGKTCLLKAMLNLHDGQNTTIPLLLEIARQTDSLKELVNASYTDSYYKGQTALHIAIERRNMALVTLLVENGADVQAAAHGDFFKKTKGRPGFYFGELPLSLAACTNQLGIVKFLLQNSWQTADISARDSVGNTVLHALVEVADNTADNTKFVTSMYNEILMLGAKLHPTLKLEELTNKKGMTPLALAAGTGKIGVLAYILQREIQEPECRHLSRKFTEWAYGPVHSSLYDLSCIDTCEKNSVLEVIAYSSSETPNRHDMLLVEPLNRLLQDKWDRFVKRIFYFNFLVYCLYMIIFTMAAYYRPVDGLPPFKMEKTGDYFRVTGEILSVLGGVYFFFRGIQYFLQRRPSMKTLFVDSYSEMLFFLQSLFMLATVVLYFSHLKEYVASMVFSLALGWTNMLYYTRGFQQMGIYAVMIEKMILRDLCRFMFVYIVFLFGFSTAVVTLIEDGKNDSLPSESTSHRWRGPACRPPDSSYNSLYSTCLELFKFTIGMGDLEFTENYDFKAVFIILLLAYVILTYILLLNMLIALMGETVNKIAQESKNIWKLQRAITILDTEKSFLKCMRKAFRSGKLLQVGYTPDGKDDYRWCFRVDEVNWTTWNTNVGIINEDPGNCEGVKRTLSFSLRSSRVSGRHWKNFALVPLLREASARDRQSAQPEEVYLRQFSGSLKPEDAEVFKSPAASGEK
Method in brief: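 CHO cells stably expressing human TRPV1 were loaded with 3 μM Fluo-4 for 1 h, then given compounds in HBSS/1 mM CaCl2/20 mM HEPES pH 7.4 with 1% DMSO for 2 min before 100 nM capsaicin (final). FLIPR fluorescence recorded over the full course; curves fitted.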

[3] = target: T1, human recombinant TRPV1; test: TRPV1 pH-Based Assay (Protocol 2, Ca2+ response in TRPV1/CHO cells, Fura-2); assay type: cell-based; conditions: TRPV1/CHO cells, pH 5.0-5.1; read-out: IC50 value by the pH-Based Assay
Method in brief: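 CHO cells stably expressing human TRPV1, Fura-2 loaded, given compound (1% DMSO in 10× stock) before acid challenge to final pH 5.0-5.1 (3.2 or 3.3 mM H2SO4). 340/380 nm ratio recorded at 0.5 Hz; maximal ratio after agonist addition versus 16-point baseline used as response.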

[4] = system: FCA-induced inflammation of the rat hind paw; test: Freund's complete adjuvant (FCA) model of inflammatory pain, reversal of hyperalgesia; assay type: in vivo; conditions: rats
Description: Test Animals: Each experiment uses rats weighing between 200-260 g at the start of the experiment. The rats are group-housed and have free access to food and water at all times, except prior to oral administration of a compound of Formula I when food is removed for 16 hours before dosing. A control group acts as a comparison to rats treated with a compound of Formula I. The control group is administered the carrier for the compound of Formula I. The volume of carrier administered to the control group is the same as the volume of carrier and compound of Formula I administered to the test group.
Inflammatory Pain: To assess the actions of the compounds of Formula I on the treatment or prevention of inflammatory pain the Freund's complete adjuvant (“FCA”) model of inflammatory pain is used. […] 24 hour post injection, the animal is assessed for response to noxious mechanical stimuli by determining the PWT, or to noxious thermal stimuli by determining the PWL, as described below. […] Responses to noxious mechanical or thermal stimuli are then determined 1, 3, 5 and 24 hours post administration. […]
Response to Mechanical Stimuli as an Assessment of Mechanical Hyperalgesia: The paw pressure assay can be used to assess mechanical hyperalgesia. For this assay, hind paw withdrawal thresholds (PWT) to a noxious mechanical stimulus are determined using an analgesymeter (Model 7200, commercially available from Ugo Basile of Italy) as described in C. […] PWT is determined once for each rat at each time point and only the affected (ipsilateral) paw is tested.
Response to Thermal Stimuli as an Assessment of Thermal Hyperalgesia: The plantar test can be used to assess thermal hyperalgesia. For this test, hind paw withdrawal latencies (PWL) to a noxious thermal stimulus are determined using a plantar test apparatus (commercially available from Ugo Basile of Italy) following the technique described by K. Hargreaves et al., “A New and Sensitive Method for Measuring Thermal Nociception in Cutaneous Hyperalgesia,” Pain 32(1):77-88 (1988). […] Three latencies are determined at each time point and averaged. […]

Row | SMILES | Body temperature increase [1] | IC50 [2] [nM] | IC50 [3] [nM] | Percentage reversal of hyperalgesia, % Reversal (3 mg/Kg, 3 hours post administration) [4] [%]
1 | Cc1ccc2nc(NC(=O)N3CCN(c4ncc(C[C@@H](O)CO)cc4F)CC3)sc2c1 [ACY, (R)-4-(5-(2,3-dihydroxypropyl)-3-fluoropyridin-2-yl)-N-(6-methylbenzo[d]-thiazol-2-yl)piperazine-1-carboxamide] | less than 0.5 °C | ≤ 50 | ≤ 50 | 
2 | Cc1ccc2nc(NC(=O)N3CCN(c4ncc(C[C@@H](O)CO)cc4F)C[C@@H]3C)sc2c1 [AEM] |  |  | ≤ 50 | 59.7
3 | O=C(Nc1nc2ccc(Cl)cc2s1)N1CCN(c2ncc(C[C@@H](O)CO)cc2F)CC1 [ACX, (R)-N-(6-chlorobenzo[d]thiazol-2-yl)-4-(5-(2,3-dihydroxypropyl)-3-fluoropyridin-2-yl)piperazine-1-carboxamide] | less than 0.5 °C | ≤ 50 | ≤ 50 | 

Continued, in another order:

Row | Body temperature increase [1] | IC50 [2] [nM] | IC50 [3] [nM] | SMILES | Percentage reversal of hyperalgesia, % Reversal (3 mg/Kg, 3 hours post administration) [4] [%]
4 | less than 0.5 °C | ≤ 50 | ≤ 50 | O=C(Nc1nc2ccc(Cl)cc2s1)N1CCN(c2ncc(C[C@H](O)CO)cc2F)CC1 [ADE, (S)-N-(6-chlorobenzo[d]thiazol-2-yl)-4-(5-(2,3-dihydroxypropyl)-3-fluoropyridin-2-yl)piperazine-1-carboxamide] | 
5 | less than 0.5 °C | ≤ 50 | ≤ 50 | O=C(Nc1nc2ccc(F)cc2s1)N1CCN(c2ncc(C[C@@H](O)CO)cc2Cl)CC1 [ACV, (R)-4-(3-chloro-5-(2,3-dihydroxypropyl)pyridin-2-yl)-N-(6-fluorobenzo[d]thiazol-2-yl)piperazine-1-carboxamide] | 
6 | less than 0.5 °C | ≤ 50 | ≤ 50 | O=C(Nc1nc2ccc(F)cc2s1)N1CCN(c2ncc(C[C@H](O)CO)cc2Cl)CC1 [ADR] | 
7 | less than 0.5 °C | ≤ 50 | ≤ 50 | O=C(Nc1nc2ccc(Cl)cc2s1)N1CCN(c2ncc(C[C@H](O)CO)cc2Cl)CC1 [ADW] | 
8 |  | ≤ 50 | ≤ 50 | C[C@H]1CN(c2ncc(C[C@@H](O)CO)cc2C(F)(F)F)CCN1C(=O)Nc1nc2ccc(F)cc2s1 [AGU] | 71
